Laboratory results: the supplement of paper PMC10307832

Experiments:
Test in all cases: relative viability (nuclei count vs DMSO), 5 days (fraction); higher = more cells survive
NCI-H1793 = tested on: NCI-H1793
Procedure, shortened: (§1)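 Lung cancer cell lines were pin-tool dosed in 1536-well plates on the day after seeding, with either a lone drug or a fixed anchor-drug dose plus five library-drug doses (not always all listed) in √10 steps. Nuclei were counted on 4× images after 5 days. Relative viability is the ratio of treated-well to vehicle-well nuclei counts, with each value a median of duplicate plates.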

SK-MES-1 = tested on: SK-MES-1
Procedure, shortened: as §1

NCI-H2347 = tested on: NCI-H2347
Procedure, shortened: as §1

NCI-H2009 = tested on: NCI-H2009
Procedure, shortened: as §1

COR-L23 = tested on: COR-L23
Procedure, shortened: as §1

NCI-H1755 = tested on: NCI-H1755
Procedure, shortened: as §1

NCI-H2228 = tested on: NCI-H2228
Procedure, shortened: as §1

NCI-H838 = tested on: NCI-H838
Procedure, shortened: as §1

NCI-H1355 = tested on: NCI-H1355
Procedure, shortened: as §1

NCI-H1993 = tested on: NCI-H1993
Procedure, shortened: as §1

NCI-H1395 = tested on: NCI-H1395
Procedure, shortened: as §1

HARA = tested on: HARA
Procedure, shortened: as §1

NCI-H1734 = tested on: NCI-H1734
Procedure, shortened: as §1

HOP-62 = tested on: HOP-62
Procedure, shortened: as §1

UMC-11 = tested on: UMC-11
Procedure, shortened: as §1

NCI-H647 = tested on: NCI-H647
Procedure, shortened: as §1

NCI-H1792 = tested on: NCI-H1792
Procedure, shortened: as §1

COR-L 105 = tested on: COR-L 105
Procedure, shortened: as §1

NCI-H2170 = tested on: NCI-H2170
Procedure, shortened: as §1

HCC-15 = tested on: HCC-15
Procedure, shortened: as §1

NCI-H358 = tested on: NCI-H358
Procedure, shortened: as §1

COc1nc(C)cnc1NS(=O)(=O)c1cccnc1-c1ccc(-c2nnco2)cc1 [Zibotentan] + CC1(C)CCC(c2ccc(Cl)cc2)=C(CN2CCN(c3ccc(C(=O)NS(=O)(=O)c4ccc(N[C@H](CCN5CCOCC5)CSc5ccccc5)c(S(=O)(=O)C(F)(F)F)c4)cc3)CC2)C1 [Navitoclax] (partner 0.5 µM)
relative viability (NCI-H1793; first compound 0.08 µM): 0.506 | relative viability (NCI-H1793; first compound 0.253 µM): 0.405 | relative viability (NCI-H1793; first compound 0.8 µM): 0.414 | relative viability (NCI-H1793; first compound 2.53 µM): 0.486 | relative viability (SK-MES-1; first compound 0.08 µM): 1.32 | relative viability (SK-MES-1; first compound 0.253 µM): 1.14 | relative viability (SK-MES-1; first compound 0.8 µM): 1.21 | relative viability (SK-MES-1; first compound 2.53 µM): 1.29 | relative viability (NCI-H2347; first compound 0.08 µM): 0.746 | relative viability (NCI-H2347; first compound 0.253 µM): 0.776 | relative viability (NCI-H2347; first compound 0.8 µM): 0.741 | relative viability (NCI-H2347; first compound 2.53 µM): 0.77 | relative viability (NCI-H2009; first compound 0.08 µM): 1.17 | relative viability (NCI-H2009; first compound 0.253 µM): 1.08 | relative viability (NCI-H2009; first compound 0.8 µM): 1.2 | relative viability (NCI-H2009; first compound 2.53 µM): 1.25 | relative viability (COR-L23; first compound 0.08 µM): 1.03 | relative viability (COR-L23; first compound 0.253 µM): 1.08 | relative viability (COR-L23; first compound 0.8 µM): 1.07 | relative viability (COR-L23; first compound 2.53 µM): 1.01 | relative viability (NCI-H1755; first compound 0.08 µM): 1.01 | relative viability (NCI-H1755; first compound 0.253 µM): 0.99 | relative viability (NCI-H1755; first compound 0.8 µM): 1 | relative viability (NCI-H1755; first compound 2.53 µM): 1.02 | relative viability (NCI-H2228; first compound 0.08 µM): 0.942 | relative viability (NCI-H2228; first compound 0.253 µM): 0.85 | relative viability (NCI-H2228; first compound 0.8 µM): 0.685 | relative viability (NCI-H2228; first compound 2.53 µM): 1.44 | relative viability (NCI-H838; first compound 0.08 µM): 1.15 | relative viability (NCI-H838; first compound 0.253 µM): 1.1 | relative viability (NCI-H838; first compound 0.8 µM): 1.18 | relative viability (NCI-H838; first compound 2.53 µM): 1.24 | relative viability (NCI-H1355; first compound 0.08 µM): 0.991 | relative viability (NCI-H1355; first compound 0.253 µM): 0.968 | relative viability (NCI-H1355; first compound 0.8 µM): 0.928 | relative viability (NCI-H1355; first compound 2.53 µM): 1.1 | relative viability (NCI-H1993; first compound 0.253 µM): 0.955 | relative viability (NCI-H1993; first compound 0.8 µM): 0.813 | relative viability (NCI-H1993; first compound 2.53 µM): 0.956 | relative viability (NCI-H1395; first compound 0.08 µM): 1.54 | relative viability (NCI-H1395; first compound 0.253 µM): 1.03 | relative viability (NCI-H1395; first compound 0.8 µM): 1.07 | relative viability (NCI-H1395; first compound 2.53 µM): 1.12 | relative viability (HARA; first compound 0.08 µM): 1.2 | relative viability (HARA; first compound 0.253 µM): 1.12 | relative viability (HARA; first compound 0.8 µM): 1.11 | relative viability (HARA; first compound 2.53 µM): 1.11 | relative viability (NCI-H1734; first compound 0.08 µM): 0.906 | relative viability (NCI-H1734; first compound 0.253 µM): 0.881 | relative viability (NCI-H1734; first compound 0.8 µM): 0.822 | relative viability (NCI-H1734; first compound 2.53 µM): 0.897 | relative viability (HOP-62; first compound 0.08 µM): 1.06 | relative viability (HOP-62; first compound 0.253 µM): 1.08 | relative viability (HOP-62; first compound 0.8 µM): 0.99 | relative viability (HOP-62; first compound 2.53 µM): 1 | relative viability (UMC-11; first compound 0.08 µM): 0.303 | relative viability (UMC-11; first compound 0.253 µM): 0.32 | relative viability (UMC-11; first compound 0.8 µM): 0.293 | relative viability (UMC-11; first compound 2.53 µM): 0.302 | relative viability (NCI-H647; first compound 0.08 µM): 1.34 | relative viability (NCI-H647; first compound 0.253 µM): 0.875 | relative viability (NCI-H647; first compound 0.8 µM): 1 | relative viability (NCI-H647; first compound 2.53 µM): 1.17 | relative viability (NCI-H1792; first compound 0.08 µM): 0.597 | relative viability (NCI-H1792; first compound 0.253 µM): 0.605 | relative viability (NCI-H1792; first compound 0.8 µM): 0.588 | relative viability (NCI-H1792; first compound 2.53 µM): 0.604 | relative viability (COR-L 105; first compound 0.08 µM): 0.696 | relative viability (COR-L 105; first compound 0.253 µM): 0.649 | relative viability (COR-L 105; first compound 0.8 µM): 0.993 | relative viability (COR-L 105; first compound 2.53 µM): 0.84 | relative viability (NCI-H2170; first compound 0.08 µM): 0.699 | relative viability (NCI-H2170; first compound 0.253 µM): 0.6 | relative viability (NCI-H2170; first compound 0.8 µM): 0.651 | relative viability (NCI-H2170; first compound 2.53 µM): 0.651 | relative viability (HCC-15; first compound 0.08 µM): 0.648 | relative viability (HCC-15; first compound 0.253 µM): 0.656 | relative viability (HCC-15; first compound 0.8 µM): 0.765 | relative viability (HCC-15; first compound 2.53 µM): 0.698

COc1nc(C)cnc1NS(=O)(=O)c1cccnc1-c1ccc(-c2nnco2)cc1 [Zibotentan] + C[C@@H](Oc1cc(-c2cnn(C3CCNCC3)c2)cnc1N)c1c(Cl)ccc(F)c1Cl [Crizotinib] (partner 1 µM)
relative viability (SK-MES-1; first compound 0.08 µM): 1.12 | relative viability (SK-MES-1; first compound 0.253 µM): 1.02 | relative viability (SK-MES-1; first compound 0.8 µM): 0.969 | relative viability (SK-MES-1; first compound 2.53 µM): 0.932 | relative viability (NCI-H2347; first compound 0.08 µM): 0.706 | relative viability (NCI-H2347; first compound 0.253 µM): 0.476 | relative viability (NCI-H2347; first compound 0.8 µM): 0.715 | relative viability (NCI-H2347; first compound 2.53 µM): 0.672 | relative viability (NCI-H2009; first compound 0.08 µM): 1.05 | relative viability (NCI-H2009; first compound 0.253 µM): 0.947 | relative viability (NCI-H2009; first compound 0.8 µM): 0.995 | relative viability (NCI-H2009; first compound 2.53 µM): 1.06 | relative viability (COR-L23; first compound 0.08 µM): 0.838 | relative viability (COR-L23; first compound 0.253 µM): 0.65 | relative viability (COR-L23; first compound 0.8 µM): 0.68 | relative viability (COR-L23; first compound 2.53 µM): 0.758 | relative viability (NCI-H1755; first compound 0.08 µM): 0.891 | relative viability (NCI-H1755; first compound 0.253 µM): 0.887 | relative viability (NCI-H1755; first compound 0.8 µM): 0.826 | relative viability (NCI-H1755; first compound 2.53 µM): 0.873 | relative viability (NCI-H2228; first compound 0.08 µM): 0.548 | relative viability (NCI-H2228; first compound 0.253 µM): 0.369 | relative viability (NCI-H2228; first compound 0.8 µM): 0.451 | relative viability (NCI-H2228; first compound 2.53 µM): 0.441 | relative viability (NCI-H838; first compound 0.08 µM): 0.918 | relative viability (NCI-H838; first compound 0.253 µM): 0.826 | relative viability (NCI-H838; first compound 0.8 µM): 0.82 | relative viability (NCI-H838; first compound 2.53 µM): 0.848 | relative viability (NCI-H1355; first compound 0.08 µM): 1.07 | relative viability (NCI-H1355; first compound 0.253 µM): 1.07 | relative viability (NCI-H1355; first compound 0.8 µM): 1.12 | relative viability (NCI-H1355; first compound 2.53 µM): 0.974 | relative viability (NCI-H1993; first compound 0.253 µM): 0.915 | relative viability (NCI-H1993; first compound 0.8 µM): 0.73 | relative viability (NCI-H1993; first compound 2.53 µM): 1.04 | relative viability (HARA; first compound 0.08 µM): 1.03 | relative viability (HARA; first compound 0.253 µM): 0.993 | relative viability (HARA; first compound 0.8 µM): 1.02 | relative viability (HARA; first compound 2.53 µM): 1.18 | relative viability (NCI-H1734; first compound 0.08 µM): 0.808 | relative viability (NCI-H1734; first compound 0.253 µM): 0.699 | relative viability (NCI-H1734; first compound 0.8 µM): 0.724 | relative viability (NCI-H1734; first compound 2.53 µM): 0.724 | relative viability (HOP-62; first compound 0.08 µM): 0.854 | relative viability (HOP-62; first compound 0.253 µM): 0.862 | relative viability (HOP-62; first compound 0.8 µM): 1.02 | relative viability (HOP-62; first compound 2.53 µM): 1.06 | relative viability (UMC-11; first compound 0.08 µM): 0.606 | relative viability (UMC-11; first compound 0.253 µM): 0.64 | relative viability (UMC-11; first compound 0.8 µM): 0.62 | relative viability (UMC-11; first compound 2.53 µM): 0.568 | relative viability (NCI-H647; first compound 0.08 µM): 1.04 | relative viability (NCI-H647; first compound 0.253 µM): 1.06 | relative viability (NCI-H647; first compound 0.8 µM): 1.18 | relative viability (NCI-H647; first compound 2.53 µM): 1.23 | relative viability (NCI-H1792; first compound 0.08 µM): 1.19 | relative viability (NCI-H1792; first compound 0.253 µM): 0.949 | relative viability (NCI-H1792; first compound 0.8 µM): 0.884 | relative viability (NCI-H1792; first compound 2.53 µM): 0.99 | relative viability (COR-L 105; first compound 0.08 µM): 0.826 | relative viability (COR-L 105; first compound 0.253 µM): 0.665 | relative viability (COR-L 105; first compound 0.8 µM): 0.901 | relative viability (COR-L 105; first compound 2.53 µM): 1.07 | relative viability (NCI-H2170; first compound 0.08 µM): 1.29 | relative viability (NCI-H2170; first compound 0.253 µM): 1.15 | relative viability (NCI-H2170; first compound 0.8 µM): 1.2 | relative viability (NCI-H2170; first compound 2.53 µM): 1.2 | relative viability (HCC-15; first compound 0.08 µM): 0.918 | relative viability (HCC-15; first compound 0.253 µM): 0.748 | relative viability (HCC-15; first compound 0.8 µM): 0.843 | relative viability (HCC-15; first compound 2.53 µM): 0.885 | relative viability (NCI-H358; first compound 0.08 µM): 0.581 | relative viability (NCI-H358; first compound 0.8 µM): 0.665 | relative viability (NCI-H358; first compound 2.53 µM): 0.617
